Measurements taken from PubChem BioAssay (NCI).
Values joined by “and” are separate entries in the source; they are usually repeats but may differ in a detail not shown here. Identical values can stand only once.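 Growth conditions: 96-well plates. Treatment: test compound, 48 hours, 5 concentrations. Analysis: linear interpolation between bracketing concentrations; unreached endpoints set to highest concentration. Abbreviation: GI50, concentration required for 50% inhibition of growth. TGI: concentration producing complete growth inhibition.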

Experiments:
Assay in all cases: inhibition of tumour cell growth, NCI panel, 48 h; in the data active = GI50 below about 0.43 µM; inactive = the rest
K-562 leukemia = test system: K-562 leukemia
786-0 renal = test system: 786-0 renal
HS 578T breast = test system: HS 578T breast
SK-MEL-28 melanoma = test system: SK-MEL-28 melanoma
SR leukemia = test system: SR leukemia
COLO 205 colon = test system: COLO 205 colon
MOLT-4 leukemia = test system: MOLT-4 leukemia
CCRF-CEM leukemia = test system: CCRF-CEM leukemia
MALME-3M melanoma = test system: MALME-3M melanoma
EKVX NSCLC = test system: EKVX NSCLC
SNB-19 CNS = test system: SNB-19 CNS
T-47D breast = test system: T-47D breast
OVCAR-4 ovarian = test system: OVCAR-4 ovarian

O=c1oc2ccccc2n1CCN1CCCCC1
> 100 µM: TGI (K-562 leukemia) | TGI (786-0 renal) | TGI (HS 578T breast) | TGI (SK-MEL-28 melanoma) | TGI (SR leukemia) | TGI (COLO 205 colon) | TGI (MOLT-4 leukemia) | TGI (CCRF-CEM leukemia) | TGI (MALME-3M melanoma) | TGI (EKVX NSCLC) | TGI (SNB-19 CNS)

CNC(=O)c1[nH]cnc1/N=N/N(C)N
> 100 µM: TGI (K-562 leukemia) | TGI (786-0 renal) | TGI (T-47D breast) | TGI (HS 578T breast) | TGI (SK-MEL-28 melanoma) | TGI (COLO 205 colon) | TGI (OVCAR-4 ovarian) | TGI (MOLT-4 leukemia) | TGI (MALME-3M melanoma) | TGI (EKVX NSCLC)

O=c1[nH]nc(Cc2ccccc2)n1Nc1ccccc1
> 100 µM: TGI (K-562 leukemia) | TGI (786-0 renal) | TGI (HS 578T breast) | TGI (SK-MEL-28 melanoma) | TGI (SR leukemia) | TGI (COLO 205 colon) | TGI (OVCAR-4 ovarian) | TGI (MOLT-4 leukemia) | TGI (CCRF-CEM leukemia) | TGI (MALME-3M melanoma) | TGI (EKVX NSCLC)

COC(=O)c1c(C)cccc1CC1Cc2c(C)cccc2C1=O (stereo not given)
90.2 µM: TGI (CCRF-CEM leukemia)
> 100 µM: TGI (K-562 leukemia) | TGI (786-0 renal) | TGI (T-47D breast) | TGI (HS 578T breast) | TGI (SK-MEL-28 melanoma) | TGI (OVCAR-4 ovarian) | TGI (MALME-3M melanoma) | TGI (EKVX NSCLC) | TGI (SNB-19 CNS)
48.3 µM: TGI (COLO 205 colon)
79.1 µM: TGI (MOLT-4 leukemia)

CC(=O)OCC1=C(C)C(OC(=O)C(OC(C)=O)[C@@H](NC(=O)c2ccccc2)c2ccccc2)CCC1(C)C (stereo not given in full)
> 100 µM: TGI (K-562 leukemia) | TGI (786-0 renal) | TGI (T-47D breast) | TGI (SK-MEL-28 melanoma) | TGI (SR leukemia) | TGI (COLO 205 colon) | TGI (OVCAR-4 ovarian) | TGI (MOLT-4 leukemia) | TGI (CCRF-CEM leukemia) | TGI (MALME-3M melanoma) | TGI (EKVX NSCLC) | TGI (SNB-19 CNS)

O=C(CSC(=S)N1CCOCC1)Nc1nc2c(s1)CCCC2
> 100 µM: TGI (786-0 renal) | TGI (SK-MEL-28 melanoma) | TGI (SR leukemia) | TGI (COLO 205 colon) | TGI (OVCAR-4 ovarian) | TGI (MOLT-4 leukemia) | TGI (CCRF-CEM leukemia) | TGI (MALME-3M melanoma) | TGI (EKVX NSCLC)

CC(C)CCn1c(=O)c2c(=O)[nH][nH]c2c2ccccc21
> 100 µM: TGI (K-562 leukemia) | TGI (786-0 renal) | TGI (HS 578T breast) | TGI (SK-MEL-28 melanoma) | TGI (SR leukemia) | TGI (COLO 205 colon) | TGI (OVCAR-4 ovarian) | TGI (CCRF-CEM leukemia) | TGI (MALME-3M melanoma) | TGI (EKVX NSCLC) | TGI (SNB-19 CNS)

CC(=O)Nc1ccc2c3c(cc(O)c2c1)N(C(=O)CCCCC(=O)Nc1ccc2c4c(cc(O)c2c1)N(C(=O)OC(C)(C)C)CC4CCl)CC3CCl (stereo not given)
4.53 µM: TGI (CCRF-CEM leukemia)
9.36 µM: TGI (786-0 renal)
> 100 µM: TGI (K-562 leukemia)
3.52 µM: TGI (MALME-3M melanoma)
35.2 µM: TGI (EKVX NSCLC)
> 26.6 µM: TGI (HS 578T breast)
23.2 µM: TGI (SK-MEL-28 melanoma)
> 24.3 µM: TGI (OVCAR-4 ovarian)
> 29.5 µM: TGI (SNB-19 CNS)
> 34.4 µM: TGI (MOLT-4 leukemia)
4.17 µM: TGI (COLO 205 colon)

Cc1c(NC(=S)Nc2ccc(Cl)cc2)c(=O)n(-c2ccccc2)n1C
> 100 µM: TGI (K-562 leukemia) | TGI (786-0 renal) | TGI (HS 578T breast) | TGI (SK-MEL-28 melanoma) | TGI (SR leukemia) | TGI (COLO 205 colon) | TGI (MOLT-4 leukemia) | TGI (CCRF-CEM leukemia) | TGI (MALME-3M melanoma) | TGI (EKVX NSCLC) | TGI (SNB-19 CNS)

CN1CN(c2ccccc2)C2(CCN(CCc3csc4ccccc34)CC2)C1=O
30.5 µM: TGI (786-0 renal)
29.7 µM: TGI (SK-MEL-28 melanoma)
46.6 µM: TGI (CCRF-CEM leukemia)
41.9 µM: TGI (MOLT-4 leukemia)
80.6 µM: TGI (SR leukemia)
29.1 µM: TGI (MALME-3M melanoma)
35.7 µM: TGI (COLO 205 colon)
54.2 µM: TGI (T-47D breast)
40.1 µM: TGI (K-562 leukemia)
93.4 µM: TGI (SNB-19 CNS)
43 µM: TGI (EKVX NSCLC)

COc1cc2c(c(OC)c1OC)-c1ccc(SC)cc1[C@H](OC(=O)c1ccccc1)CC2
0.446 µM: TGI (COLO 205 colon)
> 100 µM: TGI (K-562 leukemia) | TGI (786-0 renal) | TGI (T-47D breast) | TGI (SK-MEL-28 melanoma) | TGI (SR leukemia) | TGI (OVCAR-4 ovarian) | TGI (MOLT-4 leukemia) | TGI (CCRF-CEM leukemia) | TGI (EKVX NSCLC)

CCCCOC(=O)C(O)Cc1ccoc1 (stereo not given)
> 100 µM: TGI (K-562 leukemia) | TGI (786-0 renal) | TGI (T-47D breast) | TGI (HS 578T breast) | TGI (SK-MEL-28 melanoma) | TGI (COLO 205 colon) | TGI (OVCAR-4 ovarian) | TGI (MOLT-4 leukemia) | TGI (CCRF-CEM leukemia) | TGI (MALME-3M melanoma) | TGI (EKVX NSCLC) | TGI (SNB-19 CNS)

CC(C)=CCSC1CC2C(CC1(C)O)C2(C)C (stereo not given)
31.2 µM and 30.4 µM: TGI (MALME-3M melanoma)
34.2 µM and 31.8 µM: TGI (SNB-19 CNS)
> 100 µM and 38.7 µM: TGI (CCRF-CEM leukemia)
inactive: GI50 (K-562 leukemia) 28.2 µM and 10.1 µM | GI50 (CCRF-CEM leukemia) 26 µM and 12.8 µM
35 µM and 29.2 µM: TGI (OVCAR-4 ovarian)
40.9 µM and 67.5 µM: TGI (MOLT-4 leukemia)
80.1 µM and 29.6 µM: TGI (K-562 leukemia)
32.5 µM and 30.8 µM: TGI (COLO 205 colon)
28.3 µM and 31.4 µM: TGI (EKVX NSCLC)
29.6 µM and 25.8 µM: TGI (786-0 renal)
31.3 µM and 30.7 µM: TGI (SK-MEL-28 melanoma)

COC(=O)c1csc(-c2nc(CCNC(=O)OC(C)(C)C)sc2Br)n1
> 100 µM: TGI (K-562 leukemia) | TGI (786-0 renal) | TGI (HS 578T breast) | TGI (SK-MEL-28 melanoma) | TGI (SR leukemia) | TGI (COLO 205 colon) | TGI (MOLT-4 leukemia) | TGI (CCRF-CEM leukemia) | TGI (MALME-3M melanoma) | TGI (EKVX NSCLC) | TGI (SNB-19 CNS)

CN(CCc1ccc(N)cc1)[C@H]1CCCC[C@H]1N1CCCC1
> 100 µM: TGI (K-562 leukemia) | TGI (786-0 renal) | TGI (T-47D breast) | TGI (HS 578T breast) | TGI (SK-MEL-28 melanoma) | TGI (COLO 205 colon) | TGI (OVCAR-4 ovarian) | TGI (MOLT-4 leukemia) | TGI (MALME-3M melanoma) | TGI (EKVX NSCLC) | TGI (SNB-19 CNS)
